The source of these data is US4308273A, “1,6-Naphthyridine derivatives, and antidinic and cerebral circulation improver containing such derivatives” (Nippon Kayaku Kabushiki Kaisha, priority 1978, dated 1981).

Like-named read-outs stand apart in the source and are kept apart here.

Data set [1] in a line: Acute toxicity (LD50) by intraperitoneal injection. To be noted: mouse, in vivo, ip. The method, then:
LD50 values of the compounds by intraperitoneal injection in mice were determined.

A short description of data set [2]: Inhibition of spontaneous nystagmus produced by unilateral destruction of the labyrinth (anti-vertigo action). The data set is classed as in vivo. To be noted: cats; for inhibition at 6 mg/kg / inhibition at 12 mg/kg: Felis catus, iv, read-out: Effect of compounds on the nystagmus expressed as inhibitory percentage. The method, then:
(1) It is well known that vertigo resulting from the disturbance of the peripheral labyrinth is accompanied by nystagmus. So, we acutely produced the spontaneous nystagmus by unilateral destruction of the labyrinth in cats and used it as an experimental model of vertigo. a pair of Ag--AgCl cup electrodes was placed laterally to both orbits and an indifferent electrode on the forehead. The nystagmus was recorded through an amplifier. The inhibitory effect of the compounds on the nystagmus was expressed by [formula] where A is the frequency of the nystagmus in ten seconds before administration of the compounds and B is the frequency of the nystagmus at the maximum inhibitory point after administration. The duration of the effect was also measured. Compounds dissolved in saline were injected into the femoral vein. Betahistine and diphenidol were used as standard drugs.
A: Doses of compounds injected intraveneously.
B: Effect of compounds on the nystagmus expressed as inhibitory
C: Duration of the effect of compounds

The conditions of data set [3]: mouse, in vivo, 50 mg/kg.
Protocol: (§1) Groups consisted of 10 male-mice were administered the compounds or saline subcutaneously 15 min. prior to an intraperitoneal injection of sodium hexobarbital. Sleeping time for each animal in a group was measured. The averaged value of sleeping time in each group was calculated. The action of the sleeping time was expressed by the percentage of the sleeping time in the compound-treated groups to that in the saline-treated group.
(§2) D: Sleeping time of the compound (50 mg/kg, subcutaneously)treated groups
(§3) expressd as percentage to that of the control group.
A short description of data set [4]: Effects of intravenous injection on mean arterial pressure, heart rate and vertebral arterial flow in anesthetized dogs. The note with it: Canis lupus familiaris, iv, read-out: Percent increase in vertebral arterial flow when injected intravenously.
Protocol: (§4) Pressure in the carotid artery was measured by a pressure transducer and mean arterial pressure was obtained by electrical integration. Heart rate was obtained by a cardiotachometer, triggered by a signal from the pressure pulse. The vertebral arterial flow was measured by fitting an electromagnetic flow transducer. The action on systemic mean arterial pressure, heart rate and vertebral arterial flow were represented by Δ mmHg, Δ beats/min and percent increase.
For data set [5] the following is noted: dog, in vivo, iv, 1 mg/kg.
Protocol: as §4
The nature of data set [6]: Cerebral vasodilating action: vertebral arterial flow, intra-arterial injection. The data set is classed as in vivo. The note with it: Canis lupus familiaris; dogs, 1 mg intraarterially; read-out: Percent increase in vertebral arterial flow when injected intraarterially. The method, then: A: Percent increase in vertebral arterial flow when injected
intraarterially (1 mg) to dogs.
(1) For the experimental evaluation of cerebral vasodilating action, the canine vertebral arterial preparation was used. The carotid arterial blood was led to the vertebral artery by a short extracorporeal loop. The vertebral arterial flow was measured by an electromagnetic flow transducer inserted in the circuit. The action of the compounds on the vertebral arterial flow was expressed by percent increase when 1 mg of each compound was injected intra-arterially.

The nature of data set [7]: Effect on the hexobarbital-induced sleeping time. The note with it: male mice, 50 mg/kg subcutaneously, 15 min prior to sodium hexobarbital i.p.
Protocol: as §1, §2, §3
Setting [8] is: male mice, intraperitoneal injection (Table 3).
[9] abbreviates: mice, intraperitoneal injection (Table 4).
The mark [10] stands for this setting: 12 mg/kg injected intravenously.

With `OC(CCCN1CCCCC1)(c1ccccc1)c1ccccc1` [diphenidol, reference compound], the LD50 in data set [1] (setting [8]) was 105 mg/kg. In data set [2] (6 mg/kg injected intravenously), the inhibition at 6 mg/kg is 70% and the “Duration of the effect of compounds (nystagmus)” value (shortened to “Duration”) is on record as 45 min. Moreover, in data set [3], the “Sleeping time of the compound treated groups expressed as percentage to that of the control group” value was 253.7%.
For the compound `CCCOc1ccc(CN2CCc3ncccc3C2)cc1OCCC` [Compound 50], the change in vivo at 1 mg/kg in data set [4] is 30.6%. Further, in data set [5], the “Changes in heart rate when injected intravenously” value (“Changes in heart rate” below) is listed as “+16 Δ beats/min” and the “Changes in systemic blood pressure when injected intravenously” value (“Changes in systemic blood pressure” for short) is recorded as -10.0 Δ mmHg. This compound also came in with an LD50 in data set [1] (setting [9]) of 200 mg/kg. Besides, the change in vivo at 1 mg in data set [6] amounted to 79%.
Turning to `c1cnc2c(c1)CN(CC1CC1)CC2` [Compound 22], the LD50 in data set [1] (setting [8]) came out at 176 mg/kg. For the same compound, in data set [2] (6 mg/kg injected intravenously), the inhibition at 6 mg/kg was found to be 85% and the “Duration” value worked out at 19 min. In data set [2] (setting [10]), the inhibition at 12 mg/kg is 98% and the “Duration” value was 35 min. The “Sleeping time of the compound treated groups expressed as percentage to that of the control group” value in data set [7] was determined as 114.4%.
For the compound `CNCCc1ccccn1` [betahistine, reference compound], the change in vivo at 1 mg/kg in data set [4] was found to be 14.3%. Besides, in data set [5], the “Changes in heart rate” value is listed as “+52 Δ beats/min” and the “Changes in systemic blood pressure” value was -100.0 Δ mmHg. In data set [1] (setting [8]), this compound gave a median lethal dose (LD50) of 864 mg/kg. Moreover, the change in vivo at 1 mg in data set [6] was found to be 90%. Also, in data set [2] (6 mg/kg injected intravenously), the inhibition at 6 mg/kg is 55% and the “Duration” value is listed as 5 min. Besides, in data set [2] (setting [10]), the inhibition at 12 mg/kg is 80% and the “Duration” value is 8 min.
In data set [1] (setting [8]), `C=CCN1CCc2ncccc2C1` [Compound 12, 5,6,7,8-tetrahydro-6-allyl-1,6-naphtyridine] displayed an LD50 of 208 mg/kg. For the same compound, in data set [2] (6 mg/kg injected intravenously), the inhibition at 6 mg/kg was found to be 90% and the “Duration” value came to 40 min. In data set [2] (setting [10]), the inhibition at 12 mg/kg came out at 98% and the “Duration” value is listed as 50 min. The “Sleeping time of the compound treated groups expressed as percentage to that of the control group” value in data set [7] is 132.5%.
Consider `CCCOc1cc(CN2CCc3ncccc3C2)ccc1OC` [Compound 49], for which the change in vivo at 1 mg/kg in data set [4] was 21.2%. In data set [5], the “Changes in heart rate” value was “+24 Δ beats/min” and the “Changes in systemic blood pressure” value is given as -11.6 Δ mmHg. The same compound yielded a 50% lethal dose (LD50) in data set [1] (setting [9]) of 174 mg/kg. The change in vivo at 1 mg in data set [6] came to 93%.
